# Test results: US10151529B2, “Dynamic suspension drying (DSD) to control Ostwald Ripening” (HOVIONE INTERNATIONAL LTD, priority 2013, dated 2018)
# How the values were obtained:
# Format in all cases: physicochemical
# [1] = Laboratory study of Ostwald Ripening: particle size growth of size-reduced suspensions stored at different temperatures, LSW model fit
# Procedure: 4. In order to confirm that the observed PS instability was being caused by OR phenomenon, a laboratorial study was designed. In this study, two suspensions of MFM were size-reduced via HPH to a different PS (D50=2.0 μm and 3.0 μm) and, afterwards, stored at different temperatures (5° C. and 45° C.). In all cases, PS growth was monitored by considering […] sampling time points (24, 72, 144 and 168 h).
# Before fitting the obtained data, a literature review was conducted; several models can be found for OR modeling, with most of them being modifications of the Lifshitz, Slyozov and Wagner (LSW) theory (Eq. 1), which is a kinetic model that translates an isothermal variation of the more general problem (M. Mrotzek, 2008): […]
# Based on the above equation, two important observations (M. Mrotzek, 2008) (V. Sadtler, 2002) are expected when in the presence of OR: i) a cubic or quadratic growth (depending on the limiting step) and ii) a more pronounced increase of K for higher temperatures. As shown in FIG. 2 (left plot), both previous observations are valid for the current case-study, thus supporting the presence of OR; in this plot, r^3-r0^3 was represented as a function of time and the K value determined by performing a linear regression where Eq. 1 was assumed as the theoretical model; as shown in […] (right plot) a good correlation coefficient was obtained (R^2=0.94).
# [2] = XRPD analysis of crystalline form after DSD
# Description: 8. The crystalline form was kept unchanged, as confirmed by XRPD analysis. 9. Through this delicate balance, stabilization of the suspension is accomplished (FIG. 3) in a simpler, effective, reproducible and easily scalable way; additionally, no impact on the polymorphic form was noticeable by XPRD analysis.
# [3] = Particle size (in-process control) after high pressure homogenization and during spray drying, with and without DSD
# Procedure: 1. Mometasone furoate monohydrate (2330 g) was suspended in water (23000 g) and stirred for 5 hours in order to obtain a uniform suspension; afterwards, it was fed to a lab scale HPH apparatus operating at pressures ranging from 757.5 to 1363.5 bar in recirculation mode (returning the discharge of the HPH to the stirred vessel inlet), having this step ended with a Dv50˜2 μm after 63 hours of operation;
# 2. After the homogenization step described in point 1. above, particle size of the active pharmaceutical ingredient was within target and the suspension was fed to a lab scale spray dryer in order to isolate the active pharmaceutical ingredient in the form of a powder;
# 3. […] Due to this unstable behavior (the final material properties were trending out of targets) the batch had to be interrupted to accommodate an investigation.
# 6. In order to move forward with the manufacturing of the mentioned batch and following ones, the dynamic suspension drying (DSD) was applied targeting the stabilization of the suspension during drying for that purpose the suspension was recycled at a moderated pressure of 455 bar.
compound,measurement,setting,value
C[C@@H]1C[C@H]2[C@@H]3CCC4=CC(=O)C=C[C@]4(C)[C@@]3(Cl)[C@@H](O)C[C@]2(C)[C@@]1(OC(=O)c1ccco1)C(=O)CCl [Mometasone furoate monohydrate],Ostwald Ripening at 5° C. for target D50 range,"[1]; D50 ~2 μm, 5° C., water as anti-solvent",still significant
same,Ostwald Ripening rate constant K at 5° C. compared to 45° C.,"[1]; suspensions size-reduced to D50 = 2.0 μm and 3.0 μm, stored at 5° C. and 45° C., up to 168 h",more than five times lower
same,crystalline form after DSD,[2],unchanged
same,Dv50 at end of HPH step,"[3]; suspension in water, HPH at 757.5 to 1363.5 bar in recirculation mode, after 63 hours of operation",~2 μm
same,particle size trend during isolating step (spray drying) without recirculation,"[3]; suspension kept under stirring in feed vessel, no DSD, FIG. 2",increasing values of particle size were observed over time
same,Dv50 of isolated product manufactured through DSD,"[3]; suspension recycled to HPH at 455 bar during drying, on average, FIG. 4",~2 μm
